In US11708373B2, “5-alkylquinazoline derivative, method of preparing the same, and method of using the same” (Hefei University of Technology, priority 2020, dated 2023):

Test system: breast cancer cells (MCF)
Assay: MCF test of breast cancer cells
Type: cell-based
Text: Therefore, the compounds of the present application are expected to be useful in the treatment of various cancers, such as cervical cancer.

SMILES: COC(=O)C1=NC2(Nc3ccc(C)cc31)C(=O)Nc1ccc(C)cc12 (stereo not shown) [Compound II]
- ED50, inhibitory activity in the MCF test of breast cancer cells: < 10.0 µg/mL
